Read-outs that look alike come from different tables or passages of the source.
Key:
ACK1(h) = target: T1, ACK1(h) (Homo sapiens, UniProt Q07912); experiment: Kinase panel; assay type: biochemical
T1 construct: purchased Millipore KinaseProfiler

Arg(m) = target: T2, Arg(m) (Mus musculus, UniProt Q4JIM5); experiment: Kinase panel; assay type: biochemical
T2 construct: purchased Millipore KinaseProfiler

cKit(V560G)(h) = target: T3, cKit(V560G)(h) (Homo sapiens, UniProt P10721, V560G); experiment: Kinase panel; assay type: biochemical
T3 construct: purchased Millipore KinaseProfiler

EphB1(h) = target: T4, EphB1(h) (Homo sapiens, UniProt P54762); experiment: Kinase panel; assay type: biochemical
T4 construct: purchased Millipore KinaseProfiler
T4 sequence (P54762 18-984): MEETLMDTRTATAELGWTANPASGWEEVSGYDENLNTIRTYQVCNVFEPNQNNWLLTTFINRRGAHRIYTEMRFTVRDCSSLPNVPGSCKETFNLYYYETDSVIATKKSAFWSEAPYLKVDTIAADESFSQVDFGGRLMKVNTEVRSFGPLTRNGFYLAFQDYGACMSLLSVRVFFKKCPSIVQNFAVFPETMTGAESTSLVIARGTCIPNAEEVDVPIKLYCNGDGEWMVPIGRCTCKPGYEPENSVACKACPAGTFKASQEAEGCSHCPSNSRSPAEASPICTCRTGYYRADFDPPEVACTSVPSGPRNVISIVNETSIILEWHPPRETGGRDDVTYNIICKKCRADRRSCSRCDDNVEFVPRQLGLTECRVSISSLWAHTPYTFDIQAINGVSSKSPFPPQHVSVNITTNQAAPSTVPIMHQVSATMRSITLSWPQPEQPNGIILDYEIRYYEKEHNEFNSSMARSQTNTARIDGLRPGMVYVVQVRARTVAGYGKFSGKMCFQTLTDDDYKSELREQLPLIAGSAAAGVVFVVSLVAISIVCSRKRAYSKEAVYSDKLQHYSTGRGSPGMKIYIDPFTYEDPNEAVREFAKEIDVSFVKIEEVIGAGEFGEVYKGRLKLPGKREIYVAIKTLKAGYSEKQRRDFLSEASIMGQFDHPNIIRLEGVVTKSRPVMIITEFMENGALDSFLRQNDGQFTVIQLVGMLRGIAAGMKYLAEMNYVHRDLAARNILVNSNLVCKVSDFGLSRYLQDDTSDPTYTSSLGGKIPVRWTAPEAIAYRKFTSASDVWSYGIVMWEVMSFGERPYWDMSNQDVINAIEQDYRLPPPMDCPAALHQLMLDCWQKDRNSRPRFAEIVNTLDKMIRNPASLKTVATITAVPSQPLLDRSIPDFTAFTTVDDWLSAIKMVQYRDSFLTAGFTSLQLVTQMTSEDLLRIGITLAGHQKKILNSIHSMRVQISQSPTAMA

Fes(h) = target: T5, Fes(h) (Homo sapiens, UniProt P07332); experiment: Kinase panel; assay type: biochemical
T5 construct: purchased Millipore KinaseProfiler

FGFR2(h) = target: T6, FGFR2(h) (Homo sapiens, UniProt P21802); experiment: Kinase panel; assay type: biochemical
T6 construct: purchased Millipore KinaseProfiler

IRR(h) = target: T7, IRR(h) (Homo sapiens, UniProt P14616); experiment: Kinase panel; assay type: biochemical
T7 construct: purchased Millipore KinaseProfiler

LIMK1(h) = target: T8, LIMK1(h) (Homo sapiens, UniProt P53667); experiment: Kinase panel; assay type: biochemical
T8 construct: purchased Millipore KinaseProfiler

PAK4(h) = target: T9, PAK4(h) (Homo sapiens, UniProt O96013); experiment: Kinase panel; assay type: biochemical
T9 construct: purchased Millipore KinaseProfiler

PKCη(h) = target: T10, PKCη(h) (Homo sapiens, UniProt P24723); experiment: Kinase panel; assay type: biochemical
T10 construct: purchased Millipore KinaseProfiler

PRAK(h) = target: T11, PRAK(h) (Homo sapiens, UniProt Q8IW41); experiment: Kinase panel; assay type: biochemical
T11 construct: purchased Millipore KinaseProfiler
T11 sequence (Q8IW41 1-473): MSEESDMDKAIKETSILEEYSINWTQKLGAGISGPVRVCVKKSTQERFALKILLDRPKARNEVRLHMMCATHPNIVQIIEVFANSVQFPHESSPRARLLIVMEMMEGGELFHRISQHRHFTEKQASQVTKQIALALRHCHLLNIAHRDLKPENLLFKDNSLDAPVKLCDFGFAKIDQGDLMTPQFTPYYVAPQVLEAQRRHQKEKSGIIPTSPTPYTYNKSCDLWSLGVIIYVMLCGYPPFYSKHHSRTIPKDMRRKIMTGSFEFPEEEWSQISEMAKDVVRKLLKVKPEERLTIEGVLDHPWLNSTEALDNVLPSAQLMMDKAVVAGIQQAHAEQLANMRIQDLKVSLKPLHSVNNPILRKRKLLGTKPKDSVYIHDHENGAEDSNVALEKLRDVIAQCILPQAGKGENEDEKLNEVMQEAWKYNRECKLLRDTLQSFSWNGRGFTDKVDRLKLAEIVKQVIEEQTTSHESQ

SGK(h) = target: T12, SGK(h) (Homo sapiens, UniProt O00141); experiment: Kinase panel; assay type: biochemical
T12 construct: purchased Millipore KinaseProfiler
T12 sequence (O00141 1-431): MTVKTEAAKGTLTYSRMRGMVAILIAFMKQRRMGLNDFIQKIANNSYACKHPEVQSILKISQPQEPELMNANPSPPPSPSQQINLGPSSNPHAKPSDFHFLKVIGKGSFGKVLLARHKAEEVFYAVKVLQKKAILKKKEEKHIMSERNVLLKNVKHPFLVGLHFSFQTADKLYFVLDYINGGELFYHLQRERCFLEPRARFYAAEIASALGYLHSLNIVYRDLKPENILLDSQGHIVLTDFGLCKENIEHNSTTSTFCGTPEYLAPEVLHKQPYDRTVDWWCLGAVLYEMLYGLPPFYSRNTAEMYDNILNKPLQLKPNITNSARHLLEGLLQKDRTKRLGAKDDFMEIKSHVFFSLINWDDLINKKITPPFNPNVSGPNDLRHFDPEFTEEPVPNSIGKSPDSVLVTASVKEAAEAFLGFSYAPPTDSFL

PKCι = PKCι (Homo sapiens, UniProt P41743); experiment: Kinase IC50 assay; assay type: biochemical
[1] = Blood glucose after single oral dose; assay type: in vivo, mouse
Protocol: Blood glucose levels were determined from tail vein puncture in mice using a handheld glucometer. Plasma Insulin levels were using the Rat Ultrasensitive Insulin ELISA kit (Crystal Chem Inc).

T9 sequence (O96013 whole entry): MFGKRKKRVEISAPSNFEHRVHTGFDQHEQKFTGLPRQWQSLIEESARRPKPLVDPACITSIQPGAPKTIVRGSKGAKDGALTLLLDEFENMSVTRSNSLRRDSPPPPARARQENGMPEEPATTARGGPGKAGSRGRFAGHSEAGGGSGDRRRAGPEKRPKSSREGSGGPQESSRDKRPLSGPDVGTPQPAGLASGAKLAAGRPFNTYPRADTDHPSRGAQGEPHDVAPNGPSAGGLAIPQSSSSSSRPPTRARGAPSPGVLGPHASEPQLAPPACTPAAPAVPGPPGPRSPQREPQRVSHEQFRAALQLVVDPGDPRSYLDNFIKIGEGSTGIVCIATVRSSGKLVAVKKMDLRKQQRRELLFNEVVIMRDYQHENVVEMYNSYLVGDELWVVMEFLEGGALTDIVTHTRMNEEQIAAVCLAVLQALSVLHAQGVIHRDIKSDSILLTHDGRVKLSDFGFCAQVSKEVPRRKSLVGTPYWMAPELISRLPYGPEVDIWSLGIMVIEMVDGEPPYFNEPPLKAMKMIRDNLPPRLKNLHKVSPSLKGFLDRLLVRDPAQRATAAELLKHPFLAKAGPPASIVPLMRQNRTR
T5 sequence (P07332 whole entry): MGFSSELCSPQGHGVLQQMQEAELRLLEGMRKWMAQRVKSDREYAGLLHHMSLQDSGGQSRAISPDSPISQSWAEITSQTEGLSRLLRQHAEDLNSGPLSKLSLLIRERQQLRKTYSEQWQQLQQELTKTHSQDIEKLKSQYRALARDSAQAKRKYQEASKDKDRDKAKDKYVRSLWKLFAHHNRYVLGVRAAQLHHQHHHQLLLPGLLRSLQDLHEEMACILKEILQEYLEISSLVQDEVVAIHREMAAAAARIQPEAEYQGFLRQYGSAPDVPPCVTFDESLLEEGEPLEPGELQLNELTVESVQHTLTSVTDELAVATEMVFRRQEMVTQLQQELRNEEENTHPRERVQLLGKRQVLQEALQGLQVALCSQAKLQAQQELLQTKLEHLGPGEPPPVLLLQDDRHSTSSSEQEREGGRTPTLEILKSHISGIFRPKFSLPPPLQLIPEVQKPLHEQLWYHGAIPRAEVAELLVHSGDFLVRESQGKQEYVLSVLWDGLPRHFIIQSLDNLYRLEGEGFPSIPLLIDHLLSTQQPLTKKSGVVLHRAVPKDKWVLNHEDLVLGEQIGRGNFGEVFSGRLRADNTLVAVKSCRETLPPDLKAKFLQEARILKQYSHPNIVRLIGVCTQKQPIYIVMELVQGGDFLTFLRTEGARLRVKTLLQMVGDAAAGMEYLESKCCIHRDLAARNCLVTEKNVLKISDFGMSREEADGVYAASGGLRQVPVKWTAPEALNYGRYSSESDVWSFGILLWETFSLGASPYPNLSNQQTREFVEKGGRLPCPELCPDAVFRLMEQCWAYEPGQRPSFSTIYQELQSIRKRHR
T3 sequence (P10721 26-976 V560G): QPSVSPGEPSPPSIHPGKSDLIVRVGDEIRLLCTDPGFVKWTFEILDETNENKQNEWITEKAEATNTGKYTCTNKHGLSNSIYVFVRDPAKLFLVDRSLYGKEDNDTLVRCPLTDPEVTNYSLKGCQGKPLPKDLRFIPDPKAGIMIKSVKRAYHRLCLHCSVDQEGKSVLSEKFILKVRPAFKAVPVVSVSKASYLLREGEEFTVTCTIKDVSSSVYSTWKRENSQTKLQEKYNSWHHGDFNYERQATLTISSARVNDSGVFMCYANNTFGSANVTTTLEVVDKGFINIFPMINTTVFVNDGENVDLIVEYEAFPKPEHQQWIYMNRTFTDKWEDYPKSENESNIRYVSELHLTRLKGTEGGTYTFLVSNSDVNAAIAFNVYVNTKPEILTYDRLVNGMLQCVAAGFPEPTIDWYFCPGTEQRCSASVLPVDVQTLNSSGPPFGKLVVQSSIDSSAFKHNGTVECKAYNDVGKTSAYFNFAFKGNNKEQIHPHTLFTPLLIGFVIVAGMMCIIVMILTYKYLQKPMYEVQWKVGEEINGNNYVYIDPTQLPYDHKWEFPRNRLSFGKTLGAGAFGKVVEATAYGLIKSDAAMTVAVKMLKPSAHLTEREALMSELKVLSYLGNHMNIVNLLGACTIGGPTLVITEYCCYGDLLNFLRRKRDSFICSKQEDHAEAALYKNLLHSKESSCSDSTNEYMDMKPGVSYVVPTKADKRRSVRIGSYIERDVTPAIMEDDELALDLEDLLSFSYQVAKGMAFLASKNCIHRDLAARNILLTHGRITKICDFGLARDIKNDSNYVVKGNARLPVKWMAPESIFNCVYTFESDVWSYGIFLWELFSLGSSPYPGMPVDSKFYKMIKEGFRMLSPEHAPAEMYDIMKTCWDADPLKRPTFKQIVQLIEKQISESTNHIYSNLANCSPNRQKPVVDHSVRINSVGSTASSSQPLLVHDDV
T2 sequence (Q4JIM5 2-1182 limits assumed): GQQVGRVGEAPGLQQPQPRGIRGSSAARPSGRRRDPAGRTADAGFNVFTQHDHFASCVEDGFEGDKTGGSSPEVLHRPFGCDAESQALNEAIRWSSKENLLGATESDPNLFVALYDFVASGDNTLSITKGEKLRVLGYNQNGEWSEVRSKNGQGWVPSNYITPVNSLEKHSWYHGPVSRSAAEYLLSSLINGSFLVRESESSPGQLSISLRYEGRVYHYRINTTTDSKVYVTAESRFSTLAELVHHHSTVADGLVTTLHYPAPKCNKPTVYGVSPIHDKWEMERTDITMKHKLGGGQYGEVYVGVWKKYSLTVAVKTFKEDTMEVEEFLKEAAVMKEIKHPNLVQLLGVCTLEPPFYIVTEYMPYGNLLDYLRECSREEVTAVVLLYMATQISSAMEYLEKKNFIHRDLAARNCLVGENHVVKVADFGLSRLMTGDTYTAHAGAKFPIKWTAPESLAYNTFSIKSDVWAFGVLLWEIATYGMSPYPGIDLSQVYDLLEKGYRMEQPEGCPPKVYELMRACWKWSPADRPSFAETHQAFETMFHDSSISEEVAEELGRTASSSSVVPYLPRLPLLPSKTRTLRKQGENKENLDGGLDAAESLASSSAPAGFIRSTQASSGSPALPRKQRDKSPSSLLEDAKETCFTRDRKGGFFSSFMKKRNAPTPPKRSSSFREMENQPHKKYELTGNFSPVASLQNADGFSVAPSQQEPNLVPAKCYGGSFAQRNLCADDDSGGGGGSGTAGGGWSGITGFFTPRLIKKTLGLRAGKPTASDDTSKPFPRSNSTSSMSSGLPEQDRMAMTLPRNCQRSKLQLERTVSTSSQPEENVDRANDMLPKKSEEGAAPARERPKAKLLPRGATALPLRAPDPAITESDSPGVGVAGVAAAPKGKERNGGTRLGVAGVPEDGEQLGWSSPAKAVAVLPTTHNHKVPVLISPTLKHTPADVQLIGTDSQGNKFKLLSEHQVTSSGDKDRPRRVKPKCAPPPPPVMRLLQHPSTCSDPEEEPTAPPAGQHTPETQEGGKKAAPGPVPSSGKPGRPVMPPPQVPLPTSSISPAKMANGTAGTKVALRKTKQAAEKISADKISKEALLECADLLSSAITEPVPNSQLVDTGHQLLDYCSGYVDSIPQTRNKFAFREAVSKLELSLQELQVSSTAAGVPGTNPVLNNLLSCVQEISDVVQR
T6 sequence (P21802 22-821): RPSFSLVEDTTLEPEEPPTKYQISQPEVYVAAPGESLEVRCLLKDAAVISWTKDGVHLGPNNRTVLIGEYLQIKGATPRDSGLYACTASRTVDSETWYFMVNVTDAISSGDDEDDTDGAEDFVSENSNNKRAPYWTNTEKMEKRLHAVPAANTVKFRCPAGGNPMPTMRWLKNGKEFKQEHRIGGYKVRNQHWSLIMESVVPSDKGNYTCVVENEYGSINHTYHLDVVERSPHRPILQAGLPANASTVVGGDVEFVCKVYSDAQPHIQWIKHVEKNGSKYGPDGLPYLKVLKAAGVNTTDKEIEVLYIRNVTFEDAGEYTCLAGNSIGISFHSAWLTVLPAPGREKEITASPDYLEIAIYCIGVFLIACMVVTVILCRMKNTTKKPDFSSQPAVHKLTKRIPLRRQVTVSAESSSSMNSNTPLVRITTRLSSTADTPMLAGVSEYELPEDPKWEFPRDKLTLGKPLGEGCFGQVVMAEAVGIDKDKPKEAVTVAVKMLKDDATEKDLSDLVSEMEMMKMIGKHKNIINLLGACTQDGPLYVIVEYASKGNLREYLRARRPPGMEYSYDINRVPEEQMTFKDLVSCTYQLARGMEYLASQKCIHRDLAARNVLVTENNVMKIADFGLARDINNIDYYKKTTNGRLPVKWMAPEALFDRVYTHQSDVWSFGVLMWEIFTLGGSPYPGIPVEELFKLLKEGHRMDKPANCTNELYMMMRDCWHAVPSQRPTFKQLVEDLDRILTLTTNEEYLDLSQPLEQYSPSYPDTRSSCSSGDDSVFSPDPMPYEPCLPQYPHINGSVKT
T8 sequence (P53667 whole entry): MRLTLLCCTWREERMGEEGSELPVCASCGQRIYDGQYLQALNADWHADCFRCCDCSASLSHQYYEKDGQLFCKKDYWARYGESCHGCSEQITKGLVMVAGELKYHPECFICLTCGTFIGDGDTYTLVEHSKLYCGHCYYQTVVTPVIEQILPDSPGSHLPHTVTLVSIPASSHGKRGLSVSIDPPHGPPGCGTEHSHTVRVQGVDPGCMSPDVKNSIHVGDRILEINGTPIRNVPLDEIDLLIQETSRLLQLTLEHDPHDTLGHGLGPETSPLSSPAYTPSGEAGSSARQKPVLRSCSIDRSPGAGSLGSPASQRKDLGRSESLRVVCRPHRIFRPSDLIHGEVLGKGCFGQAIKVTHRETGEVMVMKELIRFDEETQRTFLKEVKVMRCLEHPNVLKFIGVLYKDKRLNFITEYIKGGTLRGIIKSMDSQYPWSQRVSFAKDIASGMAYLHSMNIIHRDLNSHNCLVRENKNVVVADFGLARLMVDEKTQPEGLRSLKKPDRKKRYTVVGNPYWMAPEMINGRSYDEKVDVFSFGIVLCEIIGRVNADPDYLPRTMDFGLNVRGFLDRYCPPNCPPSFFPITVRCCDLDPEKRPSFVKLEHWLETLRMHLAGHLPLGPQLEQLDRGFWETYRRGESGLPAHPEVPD

## Cn1ncc(Cl)c1-c1cc(C(=O)N[C@H](CN)Cc2cccc(F)c2)sc1Cl [GSK2110183]
ACK1(h)
  inhibition at 0.5 µM: 1%
  inhibition at 10 µM: 8%
Arg(m)
  inhibition at 0.5 µM: -1%
  inhibition at 10 µM: 1%
cKit(V560G)(h)
  inhibition at 0.5 µM: -6%
  inhibition at 10 µM: 4%
EphB1(h)
  inhibition at 0.5 µM: -2%
  inhibition at 10 µM: -4%
Fes(h)
  inhibition at 0.5 µM: 9%
  inhibition at 10 µM: 48%
FGFR2(h)
  inhibition at 0.5 µM: 0%
  inhibition at 10 µM: -2%
IRR(h)
  inhibition at 0.5 µM: -11%
  inhibition at 10 µM: -8%
LIMK1(h)
  inhibition at 0.5 µM: 21%
  inhibition at 10 µM: 25%
PAK4(h)
  inhibition at 0.5 µM: -13%
  inhibition at 10 µM: 17%
PKCη(h)
  inhibition at 0.5 µM: 78%
  inhibition at 10 µM: 97%
PRAK(h)
  inhibition at 0.5 µM: -35%
  inhibition at 10 µM: -57%
SGK(h)
  inhibition at 0.5 µM: 36%
  inhibition at 10 µM: 87%
PKCι
  IC50: > 1000 nM
[1]; 100 mg/kg single oral dose
  time for blood glucose to return to normal levels: ≤ 8 h
[1]; 100 mg/kg single oral dose, 2 h post dosing
  blood glucose level: 211 mg/dL

## Cn1ncc(Cl)c1-c1cc(C(=O)N[C@H](CN)Cc2ccc(F)c(F)c2)oc1Cl [GSK2141795]
ACK1(h); 0.5 µM, read-out: % Inhibition
  inhibition at 0.5 µM: -2%
ACK1(h); 10 µM, read-out: % Inhibition
  inhibition at 10 µM: 0%
Arg(m); 0.5 µM, read-out: % Inhibition
  inhibition at 0.5 µM: -1%
Arg(m); 10 µM, read-out: % Inhibition
  inhibition at 10 µM: 7%
cKit(V560G)(h); 0.5 µM, read-out: % Inhibition
  inhibition at 0.5 µM: -25%
cKit(V560G)(h); 10 µM, read-out: % Inhibition
  inhibition at 10 µM: 16%
EphB1(h); 0.5 µM, read-out: % Inhibition
  inhibition at 0.5 µM: -5%
EphB1(h); 10 µM, read-out: % Inhibition
  inhibition at 10 µM: -5%
Fes(h); 0.5 µM, read-out: % Inhibition
  inhibition at 0.5 µM: 0%
Fes(h); 10 µM, read-out: % Inhibition
  inhibition at 10 µM: 80%
FGFR2(h); 0.5 µM, read-out: % Inhibition
  inhibition at 0.5 µM: -8%
FGFR2(h); 10 µM, read-out: % Inhibition
  inhibition at 10 µM: 2%
IRR(h); 0.5 µM, read-out: % Inhibition
  inhibition at 0.5 µM: -16%
IRR(h); 10 µM, read-out: % Inhibition
  inhibition at 10 µM: -11%
LIMK1(h); 0.5 µM, read-out: % Inhibition
  inhibition at 0.5 µM: 3%
LIMK1(h); 10 µM, read-out: % Inhibition
  inhibition at 10 µM: 18%
PAK4(h); 0.5 µM, read-out: % Inhibition
  inhibition at 0.5 µM: 4%
PAK4(h); 10 µM, read-out: % Inhibition
  inhibition at 10 µM: 39%
PKCη(h); 0.5 µM, read-out: % Inhibition
  inhibition at 0.5 µM: 86%
PKCη(h); 10 µM, read-out: % Inhibition
  inhibition at 10 µM: 99%
PRAK(h); 0.5 µM, read-out: % Inhibition
  inhibition at 0.5 µM: 2%
PRAK(h); 10 µM, read-out: % Inhibition
  inhibition at 10 µM: -17%
SGK(h); 0.5 µM, read-out: % Inhibition
  inhibition at 0.5 µM: 47%
SGK(h); 10 µM, read-out: % Inhibition
  inhibition at 10 µM: 90%
PKCι
  IC50: > 1000 nM
[1]; maximal tolerated dose of 30 mg/kg, daily
  blood glucose level: 200 to 300 mg/dL
[1]; single 30 mg/kg dose
  time for glucose to return to normal: ≤ 8 h
[1]; single 30 mg/kg dose, 2 h post dosing
  blood glucose level: 200 mg/dL

Source: article PMC4076210, “Discovery of Novel AKT Inhibitors with Enhanced Anti-Tumor Effects in Combination with the MEK Inhibitor” (PLoS ONE, 2014)
